Values of other authors in US6124256A, “Method for the prevention of a patient's fibroproliferative vasculopathy” (priority 1998, dated 2000).

What was measured:
[1] = target: T1, hSSTR1 (Homo sapiens, UniProt P30872); details: human receptor in transfected CHO cell lines; read-out: binding affinities Ki hSSTR1
T1 construct: expressed in transfected cells; host or cells: CHO

[2] = system: dysplastic lesions; details: arterial, venous and vascular transplant models, various animal species; results inconsistent between models
[3] = system: restenosis; details: randomized placebo controlled clinical trials; quantitated by angiography or as clinical events
[4] = target: T2, SSTR2 (Homo sapiens, UniProt P30874)
Target sequence in this assay (P30874 whole entry, species assumed): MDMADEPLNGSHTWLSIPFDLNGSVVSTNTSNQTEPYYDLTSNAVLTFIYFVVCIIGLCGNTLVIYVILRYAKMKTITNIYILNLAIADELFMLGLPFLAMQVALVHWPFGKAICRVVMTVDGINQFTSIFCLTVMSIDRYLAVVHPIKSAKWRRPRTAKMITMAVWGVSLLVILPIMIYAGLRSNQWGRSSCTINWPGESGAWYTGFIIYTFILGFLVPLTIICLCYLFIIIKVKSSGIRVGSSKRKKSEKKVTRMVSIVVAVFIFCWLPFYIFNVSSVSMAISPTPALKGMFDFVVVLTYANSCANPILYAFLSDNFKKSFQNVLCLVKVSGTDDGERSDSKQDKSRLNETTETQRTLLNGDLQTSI

[5] = target: T3, hSSTR3 (Homo sapiens, UniProt P32745)
[6] = system: SSTR3, the rodent receptor
[7] = target: T4, hSSTR4 (Homo sapiens, UniProt P31391); details: human receptor in transfected CHO cell lines; read-out: binding affinities Ki hSSTR4
T4 construct: expressed in transfected cells; host or cells: CHO

[8] = target: T5, hSTR5 (Homo sapiens, UniProt P35346); details: human receptor in transfected CHO cell lines; read-out: binding affinities Ki hSTR5
T5 construct: expressed in transfected cells; host or cells: CHO

[9] = target: T2, SSTR2; design: expressed in transfected cells; host or cells: CHO; details: human receptor in transfected CHO cell lines; read-out: binding affinities Ki hSSTR2
Target sequence in this assay (P30874 whole entry): as the sequence (P30874 whole entry, species assumed) above

[10] = target: T3, hSSTR3; design: expressed in transfected cells; host or cells: CHO; details: human receptor in transfected CHO cell lines; read-out: binding affinities Ki hSSTR3

T3 sequence (P32745 whole entry): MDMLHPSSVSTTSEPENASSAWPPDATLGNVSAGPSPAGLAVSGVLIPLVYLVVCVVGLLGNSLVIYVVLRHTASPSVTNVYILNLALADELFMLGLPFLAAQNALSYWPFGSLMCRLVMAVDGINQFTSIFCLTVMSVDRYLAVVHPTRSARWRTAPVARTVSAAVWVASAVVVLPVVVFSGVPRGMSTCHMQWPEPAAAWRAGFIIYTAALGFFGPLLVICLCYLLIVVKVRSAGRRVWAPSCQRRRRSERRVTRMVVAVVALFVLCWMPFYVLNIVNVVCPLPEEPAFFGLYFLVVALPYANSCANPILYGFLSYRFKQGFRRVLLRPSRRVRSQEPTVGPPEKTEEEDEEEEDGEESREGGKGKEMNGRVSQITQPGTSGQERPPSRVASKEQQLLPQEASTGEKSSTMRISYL
T1 sequence (P30872 whole entry): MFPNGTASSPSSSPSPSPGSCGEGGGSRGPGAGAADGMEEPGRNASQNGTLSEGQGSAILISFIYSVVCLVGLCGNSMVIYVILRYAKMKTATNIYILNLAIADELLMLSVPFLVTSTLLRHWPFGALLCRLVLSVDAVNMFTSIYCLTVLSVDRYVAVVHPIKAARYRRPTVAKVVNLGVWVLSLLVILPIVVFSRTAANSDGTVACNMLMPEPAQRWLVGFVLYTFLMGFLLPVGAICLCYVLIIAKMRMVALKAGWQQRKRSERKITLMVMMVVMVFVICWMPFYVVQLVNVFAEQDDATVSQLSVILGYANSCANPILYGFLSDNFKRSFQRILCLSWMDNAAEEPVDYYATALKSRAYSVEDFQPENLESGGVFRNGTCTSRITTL
T5 sequence (P35346 whole entry): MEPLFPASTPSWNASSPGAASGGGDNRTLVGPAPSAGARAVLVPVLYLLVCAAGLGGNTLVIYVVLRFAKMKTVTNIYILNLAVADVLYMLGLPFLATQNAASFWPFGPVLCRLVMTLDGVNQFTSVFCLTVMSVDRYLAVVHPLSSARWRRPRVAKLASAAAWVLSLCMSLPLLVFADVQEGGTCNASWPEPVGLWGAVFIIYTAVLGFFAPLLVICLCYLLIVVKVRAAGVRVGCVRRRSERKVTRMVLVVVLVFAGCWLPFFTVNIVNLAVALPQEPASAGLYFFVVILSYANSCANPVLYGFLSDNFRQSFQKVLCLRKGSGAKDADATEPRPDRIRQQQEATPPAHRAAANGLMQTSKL
T4 sequence (P31391 whole entry): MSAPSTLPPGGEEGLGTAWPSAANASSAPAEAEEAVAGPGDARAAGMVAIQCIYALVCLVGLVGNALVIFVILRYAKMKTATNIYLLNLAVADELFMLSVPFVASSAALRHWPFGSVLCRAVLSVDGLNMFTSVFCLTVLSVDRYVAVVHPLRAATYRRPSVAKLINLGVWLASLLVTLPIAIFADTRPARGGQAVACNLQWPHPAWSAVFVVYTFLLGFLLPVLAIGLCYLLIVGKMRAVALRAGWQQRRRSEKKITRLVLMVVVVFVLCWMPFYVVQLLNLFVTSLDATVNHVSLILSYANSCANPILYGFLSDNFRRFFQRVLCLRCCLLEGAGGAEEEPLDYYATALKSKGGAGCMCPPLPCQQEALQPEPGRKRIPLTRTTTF

Molecule | Ki [1] [nM] | formation of dysplastic lesions [2] | prevention of restenosis after percutaneous transluminal angioplasty [3] | affinity to SSTR2 (in words) [4] | binding to human SSTR3 (in words) [5] | affinity for the rodent SSTR3 receptor (in words) [6] | Ki [7] [nM] | Ki [8] [nM] | Ki [9] [nM] | Ki [10] [nM]
CC(C)[C@@H]1NC(=O)[C@H](CCCCN)NC(=O)[C@@H](Cc2c[nH]c3ccccc23)NC(=O)[C@H](Cc2ccc(O)cc2)NC(=O)[C@@H](NC(=O)[C@H](N)Cc2ccc3ccccc3c2)CSSC[C@@H](C(=O)N[C@H](C(N)=O)[C@@H](C)O)NC1=O [Lanreotide, lanreotide] | > 1000 | prevents the formation of dysplastic lesions | in some studies has been shown to prevent restenosis | high affinity | – | – | – | – | – | –
C[C@@H](O)[C@@H]1NC(=O)[C@H](CCCCN)NC(=O)[C@@H](Cc2c[nH]c3ccccc23)NC(=O)[C@H](Cc2ccccc2)NC(=O)[C@@H](NC(=O)[C@H](N)Cc2ccccc2)CSSC[C@@H](C(=O)N[C@H](CO)[C@@H](C)O)NC1=O [Octeoride, octreotide] | – | prevents the formation of dysplastic lesions | the same therapeutic response has not been achieved | high affinity | binds well | only moderate affinity | – | – | – | –
desAA^1.2.5 [D-Trp^6 -N-p-isopropyl-4-aminomethyl-L-phenylalanine]-SST14 [DADI-SST14] | 3.2 | – | – | – | – | – | 4.3 | > 1000 | > 1000 | > 1000
